In test [1] the test system is HUVEC Endothelial organoids. Nature of the test: Organoid stimulation with IL-1β and TGF-β and treatment with PIEZO1 or ROCK inhibitor; EndMT and endothelial marker expression. The class given is cell-based, human. As to conditions: FIG. 14a/14b; for TAGLN expression / fibronectin expression: EndMT marker. As for the experimental part:
(§1) HUVEC Endothelial organoids were seeded in 384-well U-bottom ULA plates (S-bio #MS-9384UZ, lot 20839306) and centrifuged at 1,000 rpm for 5 min (142 rcf, Thermo Scientific Sorvall ST16 centrifuge). Endothelial organoid seeding volume was 25 μL per well. The HUVEC organoid seeding solution consisted of 120,000 HUVEC cells/mL, 160 μg/mL Matrigel (Corning #356-231, 10.7 mg/mL), 10% FBS (GeminiBio #900-108) and 0.24% methylcellulose (Methocel, Sigma Aldrich #94378). A key procedure being to add cold Matrigel into warm media to induce gelling.

Test [2] has as its system HUVEC Endothelial organoids. The test is described as follows: LPS and TNF-α stimulated endothelial organoid; E-selectin immunofluorescence and bright field imaging. The class given is cell-based, human. How it is done:
as §1
Fixed HUVEC Organoids were washed with PBS and permeabilized with 0.1% Tween in PBS for 10 min at 4° C. Samples were incubated with Organoid washing buffer (OWB, 0.2% BSA/0.1% Triton-X-100 in PBS) to prevent non-specific binding for 15 min at 4° C. Samples were incubated with primary antibodies in OWB at 4° C. overnight. Primary antibodies include: SELE Rabbit pAb (ABclonal, #A2191, Lot 5500024697, 1:1,000 dilution), Human VE-Cadherin Antibody (R&D systems, #AF938, 1:40 dilution) and Mouse anti-CD34 antibody (Clone QBEND/10, Invitrogen #MA1-10202, 1:500 dilution). Samples were washed with OWB and incubated with secondary antibodies or Alexa Fluor 647 Phalloidin (Invitrogen, #A22287, Lot 2170291, 1:400 dilution) in OWB for 2 hours at room temperature (RT). Secondary antibodies include: Goat anti-Rabbit Alexa Fluor 647 (Invitrogen, #A-21244, Lot 2134003, 1:500 dilution), Donkey anti-rat Alexa Fluor 488 (1:2,000 dilution), Goat anti-mouse Alexa Fluor 488 (Thermo Fisher, #A-11001, 1:2,000 dilution) and Donkey anti-mouse Alexa Fluor 568 (Invitrogen #A10037, 1:1,000 dilution). Organoids were washed with PBS and incubated with DAPI in PBS for 30 min at RT and imaged using Spinning disk Confocal microscope (Nikon, CSU-W1) with 10×, 20× and 60× magnification. E-selectin, Integrin α6 and CD34 stained organoids were performed without permeabilization step, VE-Cadherin and Phalloidin stained organoids were performed with permeabilization step
There is currently a lot of research being conducted on endothelial cells in relation to inflammation. […]

Ends that are not written are not given here.

With `C[C@@H](N)[C@H]1CC[C@H](C(=O)Nc2ccncc2)CC1` [Y-27632], in test [1], the TAGLN expression result is given as “TAGLN expression remained unchanged”, the fibronectin expression entry was “elevated fibronectin levels” and the PECAM1 expression entry was “increased PECAM1 expression”.
As for “GsMTx4: PIEZO1 inhibitor (GCLEFWWKCNPNDDKCCRPKLKCSKLFKLCNFSF; ends and bridges not checked; cysteine pairing not given here; UniProt Q7YT39 47-80, looked up)”, in test [1], the TAGLN expression result is “did not alter TAGLN” and the fibronectin expression result was “decreased fibronectin expression”.
Take “IL-1β: cytokine used for organoid stimulation; its effect indicated an inflammatory response”: in test [1], the TAGLN expression result was “without affecting fibronectin or TAGLN levels”, the fibronectin expression result was “without affecting fibronectin” and the PECAM1 expression result was “reduced PECAM1 expression”.
As for TNF-α, in test [2] (after 24 hours of treatment), the “changes in the bright field (BF)” value is “no significant changes were observed”. Further, in test [2] (fluorescent staining after 24 hours of treatment, compared to the control group, FIG. 11), the “E-selectin signal on the surface of the organoids” value was “showed expression of the E-selectin signal”. Moreover, in test [2] (fluorescent staining, FIG. 11), the “E-selectin fluorescence in relation to concentration” value is on record as “increase in fluorescence proportional to their concentrations”.
